Results published in ChEMBL document CHEMBL1909046, “DrugMatrix in vitro pharmacology data”.

Experiments:
[1] = biological target: Epidermal growth factor receptor (Homo sapiens, UniProt P00533); test: DRUGMATRIX: Protein Tyrosine Kinase, EGF Receptor enzyme inhibition (substrate: Poly(Glu:Tyr)); format: cell-based, Insect cells; conditions: insect cells; Not Active = under 50% inhibition at 10 µM
[2] = biological target: 5-hydroxytryptamine receptor 6 (Homo sapiens, UniProt P50406); format: cell membranes, HeLa, Membrane; conditions: hela; further: in other assays of this panel Not Active means under 50% inhibition at 10 µM
[3] = DRUGMATRIX: Sigma2 radioligand binding (ligand: [3H] Ifenprodil); format: cell membranes, Rattus norvegicus, Wistar, Brain, Membrane; conditions: Not Active = under 50% inhibition at 10 µM
Adenosine receptor A2a = Adenosine receptor A2a (Homo sapiens, UniProt P29274); test: DRUGMATRIX: Adenosine A2A radioligand binding (ligand: […]); format: cell membranes, HEK293, Membrane; conditions: hek293; Not Active = under 50% inhibition at 10 µM
[4] = biological target: T1, Amine oxidase [flavin-containing] A (Homo sapiens, UniProt P21397); test: DRUGMATRIX: Monoamine Oxidase MAO-A enzyme inhibition (substrate: Kynuramine); parameters: species or system BTI-TN-5B1-4; conditions: bti-tn-5b1-4; Not Active = under 50% inhibition at 10 µM
T1 sequence (P21397 whole entry): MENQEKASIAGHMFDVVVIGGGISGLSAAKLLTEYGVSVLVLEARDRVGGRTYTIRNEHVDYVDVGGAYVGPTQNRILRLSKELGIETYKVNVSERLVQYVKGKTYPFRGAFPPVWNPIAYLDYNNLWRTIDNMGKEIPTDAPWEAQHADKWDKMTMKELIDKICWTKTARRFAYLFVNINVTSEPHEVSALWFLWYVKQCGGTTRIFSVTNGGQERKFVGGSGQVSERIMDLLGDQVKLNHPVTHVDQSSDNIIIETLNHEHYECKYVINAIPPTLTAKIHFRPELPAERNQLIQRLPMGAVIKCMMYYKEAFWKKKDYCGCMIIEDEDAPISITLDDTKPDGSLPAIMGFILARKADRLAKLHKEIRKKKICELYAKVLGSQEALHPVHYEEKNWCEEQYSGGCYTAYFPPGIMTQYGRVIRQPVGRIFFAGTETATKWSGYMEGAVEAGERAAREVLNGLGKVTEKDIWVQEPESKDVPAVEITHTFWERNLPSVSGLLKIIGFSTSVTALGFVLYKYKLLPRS

[5] = biological target: Aldo-keto reductase family 1 member B1 (Rattus norvegicus, UniProt P07943); format: tissue-based, Lens of camera-type eye;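 further: inhibition of aldose reductase enzyme activity, measured with DL-glyceraldehyde as the substrate; in other assays of this panel Not Active means under 50% inhibition at 10 µM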
D(3) dopamine receptor = D(3) dopamine receptor (Homo sapiens, UniProt P35462); test: DRUGMATRIX: Dopamine D3 radioligand binding (ligand: [3H] Spiperone); format: cell membranes, CHO, Membrane; conditions: cho
[6] = DRUGMATRIX: Tumor Necrosis Factor (TNF), Non-Selective radioligand binding (ligand: [125I] TNF-alpha); format: cell membranes, Membrane; conditions: u-937; Not Active = under 50% inhibition at 10 µM
Insulin receptor = Insulin receptor (Rattus norvegicus, UniProt P15127); format: cell membranes, Wistar, Liver, Membrane; further: in other assays of this panel Not Active means under 50% inhibition at 10 µM
Calcitonin receptor = biological target: T2, Calcitonin receptor (Homo sapiens, UniProt P30988); format: cell membranes, Membrane; conditions: t47d; further: in other assays of this panel Not Active means under 50% inhibition at 10 µM
T2 sequence (P30988 whole entry): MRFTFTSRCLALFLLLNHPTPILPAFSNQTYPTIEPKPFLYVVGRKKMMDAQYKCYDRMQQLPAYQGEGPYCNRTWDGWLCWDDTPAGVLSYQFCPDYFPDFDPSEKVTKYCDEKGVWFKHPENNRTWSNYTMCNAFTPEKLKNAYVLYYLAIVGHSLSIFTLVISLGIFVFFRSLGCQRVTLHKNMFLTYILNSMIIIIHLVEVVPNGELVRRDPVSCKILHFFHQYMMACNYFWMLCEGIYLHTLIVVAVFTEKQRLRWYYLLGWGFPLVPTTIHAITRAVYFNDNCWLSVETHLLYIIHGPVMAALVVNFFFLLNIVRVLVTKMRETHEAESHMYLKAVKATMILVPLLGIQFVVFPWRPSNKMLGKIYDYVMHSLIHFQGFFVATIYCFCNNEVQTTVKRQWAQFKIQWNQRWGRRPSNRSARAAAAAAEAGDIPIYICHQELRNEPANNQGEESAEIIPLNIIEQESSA

Cannabinoid receptor 1 = Cannabinoid receptor 1 (Homo sapiens, UniProt P21554); format: cell membranes, Membrane; conditions: chem-1; further: in other assays of this panel Not Active means under 50% inhibition at 10 µM
Thromboxane-A synthase = biological target: T3, Thromboxane-A synthase (Homo sapiens, UniProt P24557); test: biochemical; format: tissue-based, Platelet; conditions: platelet
T3 sequence (P24557 whole entry): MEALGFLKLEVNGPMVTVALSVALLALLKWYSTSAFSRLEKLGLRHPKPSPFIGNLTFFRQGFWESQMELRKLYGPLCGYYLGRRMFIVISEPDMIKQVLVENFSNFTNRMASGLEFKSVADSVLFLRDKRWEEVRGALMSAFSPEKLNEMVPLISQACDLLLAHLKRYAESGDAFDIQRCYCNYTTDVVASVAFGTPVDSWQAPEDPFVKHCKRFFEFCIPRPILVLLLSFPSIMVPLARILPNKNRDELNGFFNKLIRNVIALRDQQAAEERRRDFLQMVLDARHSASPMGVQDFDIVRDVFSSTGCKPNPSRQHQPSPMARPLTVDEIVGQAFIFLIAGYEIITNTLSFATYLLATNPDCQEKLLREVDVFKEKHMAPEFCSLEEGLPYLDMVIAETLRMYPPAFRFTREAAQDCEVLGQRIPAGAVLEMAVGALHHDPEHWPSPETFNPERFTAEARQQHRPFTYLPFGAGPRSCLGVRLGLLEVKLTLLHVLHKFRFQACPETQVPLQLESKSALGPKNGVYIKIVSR

Cytochrome P450 2E1 = Cytochrome P450 2E1 (Homo sapiens, UniProt P05181); conditions: bti-tn-5b1-4; further: in other assays of this panel Not Active means under 50% inhibition at 10 µM
[7] = DRUGMATRIX: Sodium/nucleoside co-transporter radioligand binding (ligand: nitrobenzylthioinosine); format: cell membranes, Cavia porcellus, Dunkin-Hartley, Cerebral cortex, Membrane; conditions: Not Active = under 50% inhibition at 10 µM
[8] = biological target: T4, Cholecystokinin receptor type A (Homo sapiens, UniProt P32238); format: cell membranes, Membrane; conditions: 1321-n1; further: in other assays of this panel Not Active means under 50% inhibition at 10 µM
T4 sequence (P32238 whole entry): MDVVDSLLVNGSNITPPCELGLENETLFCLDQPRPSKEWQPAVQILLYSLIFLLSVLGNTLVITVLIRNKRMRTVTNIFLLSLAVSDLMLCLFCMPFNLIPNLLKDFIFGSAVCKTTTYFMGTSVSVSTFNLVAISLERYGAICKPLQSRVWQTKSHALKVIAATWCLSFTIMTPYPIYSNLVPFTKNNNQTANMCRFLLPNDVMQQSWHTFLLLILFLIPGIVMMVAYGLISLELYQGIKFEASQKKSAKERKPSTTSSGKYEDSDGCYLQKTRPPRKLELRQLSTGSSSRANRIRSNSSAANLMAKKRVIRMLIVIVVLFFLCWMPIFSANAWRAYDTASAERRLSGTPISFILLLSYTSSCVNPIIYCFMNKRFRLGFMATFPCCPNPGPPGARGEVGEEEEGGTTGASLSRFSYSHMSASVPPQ

Cannabinoid receptor 1, sequence (P21554 whole entry): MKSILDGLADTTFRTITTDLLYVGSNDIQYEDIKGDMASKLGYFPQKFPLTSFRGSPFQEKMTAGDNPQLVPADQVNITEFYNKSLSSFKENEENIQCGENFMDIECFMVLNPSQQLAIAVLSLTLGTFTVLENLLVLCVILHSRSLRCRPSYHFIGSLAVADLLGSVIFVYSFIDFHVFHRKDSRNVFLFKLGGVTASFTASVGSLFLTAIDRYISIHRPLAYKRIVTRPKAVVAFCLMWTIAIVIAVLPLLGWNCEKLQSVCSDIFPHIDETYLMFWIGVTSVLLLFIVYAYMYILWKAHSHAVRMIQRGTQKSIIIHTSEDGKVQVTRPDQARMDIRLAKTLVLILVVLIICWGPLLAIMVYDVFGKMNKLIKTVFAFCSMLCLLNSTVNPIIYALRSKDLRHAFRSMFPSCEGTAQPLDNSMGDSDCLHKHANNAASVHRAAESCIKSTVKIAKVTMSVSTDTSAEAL
5-hydroxytryptamine receptor 6, sequence (P50406 whole entry): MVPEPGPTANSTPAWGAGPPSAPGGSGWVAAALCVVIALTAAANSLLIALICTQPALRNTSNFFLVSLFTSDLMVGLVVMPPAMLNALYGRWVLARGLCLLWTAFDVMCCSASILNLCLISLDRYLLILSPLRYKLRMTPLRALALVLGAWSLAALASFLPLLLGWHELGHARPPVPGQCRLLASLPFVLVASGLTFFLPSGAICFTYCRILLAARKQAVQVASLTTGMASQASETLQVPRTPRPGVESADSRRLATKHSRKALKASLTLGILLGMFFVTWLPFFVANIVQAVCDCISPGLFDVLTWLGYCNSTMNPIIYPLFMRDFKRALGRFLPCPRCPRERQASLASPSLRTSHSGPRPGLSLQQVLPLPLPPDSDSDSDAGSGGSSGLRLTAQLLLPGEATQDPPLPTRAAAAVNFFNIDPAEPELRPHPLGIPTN
Insulin receptor, sequence (P15127 27-759 limits assumed): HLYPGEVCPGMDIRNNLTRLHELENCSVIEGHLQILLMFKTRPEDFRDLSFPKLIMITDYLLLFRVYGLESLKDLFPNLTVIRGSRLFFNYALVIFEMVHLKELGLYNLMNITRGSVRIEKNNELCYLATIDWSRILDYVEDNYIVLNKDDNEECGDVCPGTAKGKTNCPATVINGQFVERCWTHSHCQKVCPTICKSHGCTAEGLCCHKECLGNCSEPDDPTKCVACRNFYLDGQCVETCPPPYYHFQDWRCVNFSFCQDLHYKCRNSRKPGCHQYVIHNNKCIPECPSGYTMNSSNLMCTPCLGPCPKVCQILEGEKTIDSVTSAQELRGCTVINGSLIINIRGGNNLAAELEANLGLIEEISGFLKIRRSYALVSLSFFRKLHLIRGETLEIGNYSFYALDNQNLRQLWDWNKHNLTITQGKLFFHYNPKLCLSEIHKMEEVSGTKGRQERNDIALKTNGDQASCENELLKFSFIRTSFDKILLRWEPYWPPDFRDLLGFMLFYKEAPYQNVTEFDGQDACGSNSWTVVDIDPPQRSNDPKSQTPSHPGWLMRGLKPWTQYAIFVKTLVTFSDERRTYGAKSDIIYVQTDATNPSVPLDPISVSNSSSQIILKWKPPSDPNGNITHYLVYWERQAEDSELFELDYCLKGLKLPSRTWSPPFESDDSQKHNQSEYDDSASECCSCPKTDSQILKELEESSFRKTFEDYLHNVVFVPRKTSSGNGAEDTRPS
Insulin receptor, sequence (P15127 764-1383 limits assumed): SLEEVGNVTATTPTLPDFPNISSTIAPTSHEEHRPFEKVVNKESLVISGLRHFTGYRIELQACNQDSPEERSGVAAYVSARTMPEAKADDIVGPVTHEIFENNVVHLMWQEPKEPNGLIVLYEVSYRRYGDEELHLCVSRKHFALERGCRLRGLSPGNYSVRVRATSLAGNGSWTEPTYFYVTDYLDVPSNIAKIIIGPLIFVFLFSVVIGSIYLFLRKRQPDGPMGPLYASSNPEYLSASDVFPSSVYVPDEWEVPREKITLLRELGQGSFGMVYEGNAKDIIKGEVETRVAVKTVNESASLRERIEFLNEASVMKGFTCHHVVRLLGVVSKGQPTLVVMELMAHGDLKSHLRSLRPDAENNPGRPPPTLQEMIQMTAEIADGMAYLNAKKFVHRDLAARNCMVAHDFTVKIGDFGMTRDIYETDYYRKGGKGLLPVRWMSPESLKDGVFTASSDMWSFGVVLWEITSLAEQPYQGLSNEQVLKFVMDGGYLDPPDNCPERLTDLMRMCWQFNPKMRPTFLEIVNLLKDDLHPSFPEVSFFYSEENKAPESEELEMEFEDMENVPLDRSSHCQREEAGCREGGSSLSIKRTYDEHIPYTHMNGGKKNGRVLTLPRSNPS
Adenosine receptor A2a, sequence (P29274 whole entry): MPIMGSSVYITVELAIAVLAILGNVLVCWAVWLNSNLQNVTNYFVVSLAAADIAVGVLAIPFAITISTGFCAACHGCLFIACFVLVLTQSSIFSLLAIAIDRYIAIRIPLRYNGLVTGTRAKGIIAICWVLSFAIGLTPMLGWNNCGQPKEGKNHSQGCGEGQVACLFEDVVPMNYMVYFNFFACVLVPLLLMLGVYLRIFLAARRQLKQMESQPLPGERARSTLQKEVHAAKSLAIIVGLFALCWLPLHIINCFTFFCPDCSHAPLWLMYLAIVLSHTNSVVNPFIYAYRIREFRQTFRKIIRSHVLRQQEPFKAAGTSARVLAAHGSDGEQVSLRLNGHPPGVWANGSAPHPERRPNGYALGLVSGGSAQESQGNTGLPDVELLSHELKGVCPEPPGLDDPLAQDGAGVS
Cytochrome P450 2E1, sequence (P05181 whole entry): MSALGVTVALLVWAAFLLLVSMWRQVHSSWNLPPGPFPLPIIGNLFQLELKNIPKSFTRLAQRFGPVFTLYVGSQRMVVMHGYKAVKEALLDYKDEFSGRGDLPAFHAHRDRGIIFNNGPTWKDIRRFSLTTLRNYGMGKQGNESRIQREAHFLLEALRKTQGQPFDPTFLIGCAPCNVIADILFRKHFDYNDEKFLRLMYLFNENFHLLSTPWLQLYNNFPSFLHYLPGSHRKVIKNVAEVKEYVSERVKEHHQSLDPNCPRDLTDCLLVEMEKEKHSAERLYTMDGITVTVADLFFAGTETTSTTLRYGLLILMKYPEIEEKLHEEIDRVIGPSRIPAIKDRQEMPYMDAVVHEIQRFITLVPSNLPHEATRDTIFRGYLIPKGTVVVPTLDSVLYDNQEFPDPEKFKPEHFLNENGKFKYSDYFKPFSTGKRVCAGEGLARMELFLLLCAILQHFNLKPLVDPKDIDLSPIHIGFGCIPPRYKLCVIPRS
D(3) dopamine receptor, sequence (P35462 whole entry): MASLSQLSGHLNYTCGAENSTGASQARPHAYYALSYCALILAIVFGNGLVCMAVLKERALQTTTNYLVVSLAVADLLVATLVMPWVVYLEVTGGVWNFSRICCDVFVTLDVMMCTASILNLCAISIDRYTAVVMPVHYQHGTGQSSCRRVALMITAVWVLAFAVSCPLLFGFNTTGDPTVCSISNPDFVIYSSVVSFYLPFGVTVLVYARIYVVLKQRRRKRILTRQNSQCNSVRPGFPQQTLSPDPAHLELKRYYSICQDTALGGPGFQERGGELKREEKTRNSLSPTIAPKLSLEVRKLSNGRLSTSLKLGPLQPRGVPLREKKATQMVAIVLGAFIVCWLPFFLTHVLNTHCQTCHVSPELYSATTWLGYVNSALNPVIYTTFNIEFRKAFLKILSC

COc1ccc(C(CN(C)C)C2(O)CCCCC2)cc1 (centres undefined) [VENLAFAXINE]
IC50 [1]: Not Active | IC50 [2]: Not Active | IC50 [3]: Not Active | Ki [3]: Not Active | IC50 (Adenosine receptor A2a): Not Active | IC50 [4]: Not Active | IC50 [5]: Not Active | IC50 (D(3) dopamine receptor): Not Active | IC50 [6]: Not Active | Ki [6]: Not Active | IC50 (Insulin receptor): Not Active | IC50 (Calcitonin receptor): Not Active | IC50 (Cannabinoid receptor 1): Not Active | IC50 (Thromboxane-A synthase): Not Active | IC50 (Cytochrome P450 2E1): Not Active | Ki (Cytochrome P450 2E1): Not Active | IC50 [7]: Not Active | Ki [7]: Not Active | IC50 [8]: Not Active

IVERMECTIN
IC50 [1]: Not Active | Ki [1]: Not Active | IC50 [2]: Not Active | Ki [2]: Not Active | IC50 [3]: Not Active | Ki [3]: Not Active | IC50 (Adenosine receptor A2a): Not Active | Ki (Adenosine receptor A2a): Not Active | IC50 [4]: Not Active | Ki [4]: Not Active | IC50 [5]: Not Active | Ki [5]: Not Active | IC50 (D(3) dopamine receptor; read-out: IC50): 2210 nM | Ki (D(3) dopamine receptor; read-out: Ki): 750 nM | IC50 [6]: Not Active | Ki [6]: Not Active | IC50 (Insulin receptor): Not Active | Ki (Insulin receptor): Not Active | IC50 (Calcitonin receptor): Not Active | Ki (Calcitonin receptor): Not Active | IC50 (Cannabinoid receptor 1): Not Active | Ki (Cannabinoid receptor 1): Not Active | IC50 (Thromboxane-A synthase): Not Active | Ki (Thromboxane-A synthase): Not Active | IC50 (Cytochrome P450 2E1): Not Active | Ki (Cytochrome P450 2E1): Not Active | IC50 [7]: Not Active | Ki [7]: Not Active | IC50 [8]: Not Active | Ki [8]: Not Active
